Patent publication US20190210996A1, “NOVEL COMPOUNDS” (GLAXOSMITHKLINE INTELLECTUAL PROPERTY DEVELOPMENT LIMITED, priority 2016, published 2019)

Experiments:
Format in all cases: cell-based
IRAK3 = target: T1, IRAK3 (Homo sapiens, UniProt Q9Y616); experiment: Expression proteomics in THP-1 cells: IRAK3 protein level; settings: IRAK3, THP-1 cells
T1 construct: endogenous in cells; host or cells: THP-1
T1 sequence (Q9Y616 1-596): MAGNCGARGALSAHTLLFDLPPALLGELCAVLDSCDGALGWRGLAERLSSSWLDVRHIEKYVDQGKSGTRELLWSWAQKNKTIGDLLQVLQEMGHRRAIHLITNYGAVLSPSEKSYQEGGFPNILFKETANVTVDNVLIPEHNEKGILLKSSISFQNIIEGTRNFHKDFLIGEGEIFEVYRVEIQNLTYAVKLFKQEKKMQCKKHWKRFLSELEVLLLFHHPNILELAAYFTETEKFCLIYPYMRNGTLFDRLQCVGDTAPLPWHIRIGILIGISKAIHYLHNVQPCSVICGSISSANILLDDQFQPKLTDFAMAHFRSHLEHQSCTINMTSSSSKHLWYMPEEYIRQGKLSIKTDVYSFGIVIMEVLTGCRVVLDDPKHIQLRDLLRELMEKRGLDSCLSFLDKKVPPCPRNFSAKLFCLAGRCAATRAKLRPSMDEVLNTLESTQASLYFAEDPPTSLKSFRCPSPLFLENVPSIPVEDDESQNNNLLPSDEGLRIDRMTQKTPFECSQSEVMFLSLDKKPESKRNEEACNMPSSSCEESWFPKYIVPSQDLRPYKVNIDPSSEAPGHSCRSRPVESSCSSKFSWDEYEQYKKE
Protocol: (§1) THP-1 cells were seeded at a concentration of 3×10^6 cells in T175 flasks with 60 mL growth medium (RPMI1640+10% FBS). […] of a 10× compound solution prepared in growth medium (DMSO), CEREBLON_PROTAC) was added and the cells were treated for the indicated time points (6 or 24 h) at 37° C., 5% CO2. For harvesting the cells were collected into falcon tubes on ice, centrifuged and washed twice in cold PBS (Life technologies). After the last washing step the supernatant was removed and the pellets were snap-frozen in liquid N2 and stored at −80° C. and lysed in 2% SDS for 3 min at 95° C. in a thermomixer (Thermo Fisher Scientific), followed by digestion of DNA with Benzonase at 37° C. for 1.5 h. Lysate was cleared by centrifugation an protein concentration in supernatant was determined by BCA assay.
(§2) Leukemia 25, 89-100 (2011).
(§3) Samples were dried in vacuo and resuspended in 0.05% trifluoroacetic acid in water. Of the sample, 50% was injected into an Ultimate3000 nanoRLSC (Dionex, Sunnyvale, Calif.) coupled to a Q Exactive HF (Thermo Fisher Scientific). Peptides were trapped on a 5 mm×300 μm C18 column (Pepmap100, 5 μm, 300 Å, Thermo Fisher Scientific) in water with 0.05% TFA at 60° C. Separation was performed on custom 50 cm×[…] (ID) reversed-phase columns (Reprosil) at 55° C. Gradient elution was performed from 2% acetonitrile to 40% acetonitrile in 0.1% formic acid and 3.5% DMSO over 2 hours. Samples were online injected into Q-Exactive HF mass spectrometers operating with a data-dependent top 10 method. MS spectra were acquired by using 60.000 resolution and an ion target of 3×10^6. Higher energy collisional dissociation (HCD) scans were performed with 35% NCE at 30.000 resolution (at m/z 200), and the ion target settings was set to 2×10^5 so as to avoid coalescence (Werner, T. et al. Ion Coalescence of Neutron Encoded TMT 10-Plex Reporter Ions. Anal. Chem. 86, 3594-3601 (2014).
(§4) The first search was performed with 30 parts per million mass tolerance for peptide precursors and 30 mD (HCD) mass tolerance for fragment ions followed by a final search using recalibrated data with a 10 parts per million mass tolerance for peptide precursors and 20 mD (HCD) mass tolerance for fragment ions. Carbamidomethylation of cysteine residues and TMT modification of lysine residues were set as fixed modifications and methionine oxidation, and N-terminal acetylation of proteins and TMT modification of peptide N-termini were set as variable modifications. […]
(§5) Nat Biotech 29, 255-265 (2011). this measure is referred to as ion area Savitski, M. M. et al. Delayed Fragmentation and Optimized Isolation Width Settings for Improvement of Protein Identification and Accuracy of Isobaric Mass Tag Quantification on Orbitrap-Type Mass Spectrometers. […]

RPS6KA1 = target: T2, RPS6KA1 (Homo sapiens, UniProt Q15418); experiment: Expression proteomics in THP-1 cells: RPS6KA1 protein level; settings: RPS6KA1, THP-1 cells
T2 construct: endogenous in cells; host or cells: THP-1
Protocol: as §1, §2, §3, §4, §5

AAK1 = target: T3, AAK1 (Homo sapiens, UniProt Q2M2I8); experiment: Expression proteomics in THP-1 cells: AAK1 protein level; settings: AAK1, THP-1 cells
T3 construct: endogenous in cells; host or cells: THP-1
Protocol: as §1, §2, §3, §4, §5

T3 sequence (Q2M2I8 whole entry): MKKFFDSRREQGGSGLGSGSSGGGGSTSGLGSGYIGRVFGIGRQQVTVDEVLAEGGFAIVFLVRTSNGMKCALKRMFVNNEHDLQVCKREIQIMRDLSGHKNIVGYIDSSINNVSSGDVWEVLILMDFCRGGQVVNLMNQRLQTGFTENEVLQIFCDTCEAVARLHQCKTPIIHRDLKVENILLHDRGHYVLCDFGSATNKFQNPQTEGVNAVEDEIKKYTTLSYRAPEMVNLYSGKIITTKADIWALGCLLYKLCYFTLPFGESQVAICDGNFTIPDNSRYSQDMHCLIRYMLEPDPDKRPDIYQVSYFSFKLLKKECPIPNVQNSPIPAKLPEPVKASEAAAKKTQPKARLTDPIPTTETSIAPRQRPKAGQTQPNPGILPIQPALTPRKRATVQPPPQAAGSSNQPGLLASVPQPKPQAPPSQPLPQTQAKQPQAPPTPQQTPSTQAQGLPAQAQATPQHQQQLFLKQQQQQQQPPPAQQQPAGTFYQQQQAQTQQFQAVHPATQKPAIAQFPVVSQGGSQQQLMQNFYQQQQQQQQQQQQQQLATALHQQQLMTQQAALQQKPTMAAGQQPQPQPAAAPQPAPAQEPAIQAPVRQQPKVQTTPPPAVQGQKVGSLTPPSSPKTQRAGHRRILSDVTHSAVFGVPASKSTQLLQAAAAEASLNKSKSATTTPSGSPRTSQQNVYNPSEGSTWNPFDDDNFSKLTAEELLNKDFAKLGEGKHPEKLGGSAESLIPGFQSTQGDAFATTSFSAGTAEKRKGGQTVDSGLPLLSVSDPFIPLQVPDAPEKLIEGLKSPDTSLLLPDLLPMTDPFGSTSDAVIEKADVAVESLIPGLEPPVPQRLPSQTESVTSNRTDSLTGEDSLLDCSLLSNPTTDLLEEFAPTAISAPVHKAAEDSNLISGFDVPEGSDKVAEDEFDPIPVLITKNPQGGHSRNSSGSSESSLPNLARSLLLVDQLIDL
T2 sequence (Q15418 whole entry): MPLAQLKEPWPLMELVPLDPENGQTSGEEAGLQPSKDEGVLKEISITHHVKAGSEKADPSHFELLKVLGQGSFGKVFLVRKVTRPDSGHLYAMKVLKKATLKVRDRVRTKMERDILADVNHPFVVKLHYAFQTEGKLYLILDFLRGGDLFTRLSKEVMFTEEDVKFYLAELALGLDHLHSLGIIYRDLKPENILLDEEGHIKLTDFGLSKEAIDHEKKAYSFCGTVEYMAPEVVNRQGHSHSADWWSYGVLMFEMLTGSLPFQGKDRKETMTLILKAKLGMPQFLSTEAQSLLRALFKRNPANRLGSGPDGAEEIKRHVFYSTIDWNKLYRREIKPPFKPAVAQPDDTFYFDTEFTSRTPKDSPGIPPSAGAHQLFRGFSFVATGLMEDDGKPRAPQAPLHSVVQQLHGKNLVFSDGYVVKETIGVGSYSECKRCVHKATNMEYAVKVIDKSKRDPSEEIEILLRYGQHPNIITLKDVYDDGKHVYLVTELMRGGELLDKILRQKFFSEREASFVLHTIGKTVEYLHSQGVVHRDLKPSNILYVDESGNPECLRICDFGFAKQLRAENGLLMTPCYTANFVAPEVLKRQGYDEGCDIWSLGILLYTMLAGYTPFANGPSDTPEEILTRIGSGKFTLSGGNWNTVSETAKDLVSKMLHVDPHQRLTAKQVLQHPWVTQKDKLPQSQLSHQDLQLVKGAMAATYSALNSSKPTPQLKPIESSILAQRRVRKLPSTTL

log2 rel. fc. to vehicle control (IRAK3; 24 h 0.1 μM, n = 1): −2.25
log2 rel. fc. to vehicle control (IRAK3; 24 h 0.1 μM, n = 2): −1.82
log2 rel. fc. to vehicle control (IRAK3; 24 h 1 μM, n = 1): −1.65
log2 rel. fc. to vehicle control (IRAK3; 24 h 1 μM, n = 2): −1.86
log2 rel. fc. to vehicle control (RPS6KA1; 24 h 0.1 μM, n = 1): −1.65
log2 rel. fc. to vehicle control (RPS6KA1; 24 h 0.1 μM, n = 2): −1.55
log2 rel. fc. to vehicle control (RPS6KA1; 24 h 1 μM, n = 1): −1.86
log2 rel. fc. to vehicle control (RPS6KA1; 24 h 1 μM, n = 2): −1.93
log2 rel. fc. to vehicle control (AAK1; 24 h 0.1 μM, n = 1): −2.34
log2 rel. fc. to vehicle control (AAK1; 24 h 0.1 μM, n = 2): −2.12
log2 rel. fc. to vehicle control (AAK1; 24 h 1 μM, n = 1): −2.42
log2 rel. fc. to vehicle control (AAK1; 24 h 1 μM, n = 2): −2.56
SMILES: CNC(=O)c1ccccc1Nc1nc(Nc2ccc(N3CCN(CCOCCOCCOCCOCC(=O)Nc4cccc5c4CN(C4CCC(=O)NC4=O)C5=O)CC3)cc2)ncc1Cl.O=CO (stereo not drawn) [CEREBLON_PROTAC, 14-(4-(4-((5-Chloro-4-((2-(methylcarbamoyl)phenyl)amino)pyrimidin-2-yl)amino)phenyl)piperazin-1-yl)-N-(2-(2,6-dioxopiperidin-3-yl)-1-oxoisoindolin-4-yl)-3,6,9,12-tetraoxatetradecan-1-amide formate]
